In ChEMBL document CHEMBL1201862, “PubChem BioAssay data set” (2004):
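Five compound concentrations were applied to cells in 96-well plates for 48 hours; endpoints were derived by simple linear interpolation of the resulting dose-response curve. GI50 marks 50% less growth.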 Active and inactive are the calls of the source. Cut-off read from the data, not from the text of the source: active = GI50 up to about 1.1 µM and inactive = higher.

Key:
Test in all cases: inhibition of tumour cell growth, NCI panel, 48 h
A549 = test system: A549
ACHN = test system: ACHN
COLO 205 = test system: COLO 205
HT-29 = test system: HT-29
MOLT-4 = test system: MOLT-4
Malme-3M = test system: Malme-3M
NCI-H23 = test system: NCI-H23
NCI-H522 = test system: NCI-H522
OVCAR-3 = test system: OVCAR-3
RXF 393 = test system: RXF 393
SF-295 = test system: SF-295
SNB-19 = test system: SNB-19
SNB-75 = test system: SNB-75
UACC-62 = test system: UACC-62
UO-31 = test system: UO-31
CAKI-1 = test system: CAKI-1
HOP-62 = test system: HOP-62

Measured: GI50

NC1=NS(=O)(=O)N=C(N)C1=Cc1ccc([N+](=O)[O-])o1
inactive: A549 52 µM | ACHN 16.9 µM | COLO 205 15.7 µM | HT-29 18.2 µM | MOLT-4 12.6 µM | Malme-3M 16 µM | NCI-H23 17.3 µM | NCI-H522 17.7 µM | OVCAR-3 18.1 µM | RXF 393 18.8 µM | SF-295 25.4 µM | SNB-19 32.8 µM | SNB-75 16.3 µM | UACC-62 16.4 µM | UO-31 17.9 µM

O=C(NCO)NCOCn1c(=O)n(CO)c(=O)n(CO)c1=O
inactive: A549 66.7 µM | ACHN 49.1 µM | CAKI-1 40.6 µM | COLO 205 27.4 µM | HOP-62 > 100 µM | HT-29 32.6 µM | MOLT-4 23.4 µM | Malme-3M 31.5 µM | NCI-H23 19.8 µM | OVCAR-3 84.1 µM | RXF 393 15.2 µM | SF-295 > 91 µM | SNB-19 > 31.6 µM | SNB-75 35.8 µM | UACC-62 19.1 µM | UO-31 > 100 µM

NCCSc1cc(O)c2c(c1N)C(=O)c1ccccc1C2=O
inactive: A549 > 100 µM | ACHN 43.8 µM | CAKI-1 > 100 µM | HOP-62 > 100 µM | HT-29 34.1 µM | MOLT-4 20.9 µM | Malme-3M 26 µM | NCI-H23 > 100 µM | NCI-H522 19.6 µM | OVCAR-3 43 µM | RXF 393 27.7 µM | SF-295 46 µM | SNB-19 34 µM | SNB-75 67.6 µM | UACC-62 36.7 µM | UO-31 > 100 µM

N#[N+][c-]1c(-c2ccccc2)n[nH]c1=O
inactive: A549 > 100 µM | ACHN > 100 µM | CAKI-1 > 100 µM | COLO 205 > 100 µM | HT-29 > 100 µM | MOLT-4 > 100 µM | Malme-3M > 100 µM | NCI-H23 > 100 µM | NCI-H522 > 100 µM | OVCAR-3 > 100 µM | RXF 393 > 100 µM | SF-295 > 100 µM | SNB-75 > 100 µM

COc1ccc(/C=C/C(=O)c2sc(-c3cccnc3)nc2C)cc1
inactive: A549 39.2 µM | CAKI-1 49.9 µM | COLO 205 48.3 µM | HOP-62 63.7 µM | HT-29 36.9 µM | MOLT-4 16.7 µM | Malme-3M 62.8 µM | NCI-H23 75.5 µM | NCI-H522 20.5 µM | OVCAR-3 24.2 µM | RXF 393 26.3 µM | SF-295 35.8 µM | SNB-75 30.1 µM | UACC-62 46.3 µM | UO-31 41.7 µM

O=c1[nH]c(S)nc2c1sc(=S)n2-c1ccccc1
inactive: A549 > 100 µM | ACHN > 100 µM | CAKI-1 > 100 µM | COLO 205 > 100 µM | HOP-62 > 100 µM | HT-29 > 100 µM | MOLT-4 > 100 µM | Malme-3M > 100 µM | NCI-H23 > 100 µM | NCI-H522 > 100 µM | OVCAR-3 > 100 µM | RXF 393 > 100 µM | SF-295 > 100 µM | SNB-19 > 100 µM | SNB-75 55.1 µM | UACC-62 > 100 µM | UO-31 > 100 µM

CC12CC/C(=N/NC(N)=O)C3C1CCCC32
inactive: A549 > 100 µM | ACHN > 100 µM | CAKI-1 > 100 µM | COLO 205 > 100 µM | HOP-62 > 100 µM | HT-29 > 100 µM | MOLT-4 > 100 µM | Malme-3M > 100 µM | NCI-H23 > 100 µM | NCI-H522 > 100 µM | OVCAR-3 > 100 µM | SF-295 > 100 µM | SNB-19 > 100 µM | SNB-75 > 100 µM | UACC-62 > 100 µM | UO-31 > 100 µM

Cc1cc2nc(O)c(CCC(=O)O)nc2cc1C
inactive: A549 > 100 µM | ACHN > 100 µM | CAKI-1 > 100 µM | COLO 205 70.6 µM | HOP-62 > 100 µM | HT-29 > 100 µM | MOLT-4 > 100 µM | Malme-3M > 100 µM | NCI-H23 > 100 µM | NCI-H522 83.8 µM | OVCAR-3 > 100 µM | RXF 393 > 100 µM | SF-295 > 100 µM | SNB-19 > 100 µM | SNB-75 > 100 µM | UACC-62 > 100 µM | UO-31 > 100 µM

O=C1C(c2ccccc2)=[N+]([O-])c2ccc(Cl)cc21
inactive: A549 32.1 µM | ACHN 23.2 µM | COLO 205 14.1 µM | HOP-62 63.4 µM | HT-29 22 µM | MOLT-4 23.6 µM | Malme-3M 26.2 µM | NCI-H23 31.6 µM | NCI-H522 15.3 µM | OVCAR-3 23.3 µM | RXF 393 13.2 µM | SF-295 34.1 µM | SNB-19 34.5 µM | SNB-75 46.8 µM | UACC-62 17.5 µM | UO-31 43.3 µM

CC(C)CCC[C@@H](C)C1CCC2[C@@H]3CC=C4C[C@@H](C(=O)NCC[N+](C)(C)CCCS(=O)(=O)[O-])CC[C@]4(C)C3CC[C@@]21C (stereo partly drawn)
inactive: A549 17.3 µM | ACHN 18.5 µM | CAKI-1 14.2 µM | COLO 205 17.5 µM | HOP-62 24 µM | HT-29 18 µM | MOLT-4 18.2 µM | Malme-3M 18.9 µM | NCI-H522 11.5 µM | OVCAR-3 16.4 µM | RXF 393 20.9 µM | SF-295 20 µM | SNB-19 21.8 µM | SNB-75 20.2 µM | UACC-62 20.1 µM | UO-31 19.8 µM

CC(/C=C/NNC1=NN=C(c2ccccc2)C(c2ccccc2)N1)Sc1ccccc1N (stereo not drawn)
inactive: A549 11.4 µM | ACHN 10.4 µM | CAKI-1 14.7 µM | COLO 205 15.3 µM | HOP-62 17.9 µM | HT-29 11 µM | MOLT-4 3.43 µM | Malme-3M 7.05 µM | NCI-H23 12.9 µM | NCI-H522 3.56 µM | OVCAR-3 10.3 µM | SF-295 10.5 µM | SNB-19 12.5 µM | SNB-75 3.3 µM | UACC-62 3.39 µM | UO-31 6.53 µM

COc1ccc([C@H]2CC3C(=O)N(c4ccc(OC)cc4)C(=O)C3c3[nH]c4ccccc4c32)cc1 (stereo partly drawn)
inactive: A549 47.4 µM | ACHN > 100 µM | CAKI-1 > 100 µM | COLO 205 97.5 µM | HOP-62 32.7 µM | MOLT-4 32.9 µM | Malme-3M 36.1 µM | NCI-H23 54 µM | NCI-H522 99.5 µM | OVCAR-3 > 100 µM | SF-295 16.7 µM | SNB-19 32.1 µM | SNB-75 16.1 µM | UACC-62 > 100 µM | UO-31 > 100 µM

CC(C)c1ccccc1NC(=O)CCC(=O)NN
inactive: A549 > 100 µM | ACHN > 100 µM | CAKI-1 > 100 µM | MOLT-4 > 100 µM | Malme-3M > 100 µM | NCI-H23 > 100 µM | NCI-H522 > 100 µM | OVCAR-3 > 100 µM | SF-295 > 100 µM | SNB-19 > 100 µM | SNB-75 > 100 µM | UACC-62 > 100 µM | UO-31 > 100 µM

CCSc1nnc(-c2ccccc2)nc1Cc1ccc(OC)cc1
inactive: A549 42.2 µM | ACHN 77.8 µM | COLO 205 86.9 µM | HOP-62 > 100 µM | HT-29 > 100 µM | MOLT-4 49.2 µM | Malme-3M > 100 µM | NCI-H23 63.4 µM | NCI-H522 43.3 µM | OVCAR-3 88.9 µM | RXF 393 > 100 µM | SF-295 52.5 µM | SNB-19 > 100 µM | SNB-75 65.8 µM | UACC-62 > 100 µM | UO-31 > 100 µM

Cc1ccccc1/C=C/c1csnn1
inactive: A549 > 57.3 µM | ACHN > 100 µM | CAKI-1 > 100 µM | COLO 205 > 100 µM | HOP-62 > 100 µM | HT-29 > 100 µM | MOLT-4 > 100 µM | Malme-3M > 100 µM | NCI-H23 > 100 µM | NCI-H522 > 100 µM | OVCAR-3 > 100 µM | RXF 393 > 100 µM | SF-295 > 100 µM | SNB-19 > 100 µM | SNB-75 > 100 µM | UACC-62 > 100 µM | UO-31 > 100 µM

CSc1sc(=S)sc1C(=O)N(C)c1ccccc1
inactive: A549 > 100 µM | ACHN > 100 µM | COLO 205 > 100 µM | HOP-62 > 100 µM | HT-29 > 100 µM | MOLT-4 84.5 µM | Malme-3M > 100 µM | NCI-H23 > 100 µM | NCI-H522 48.8 µM | OVCAR-3 91.8 µM | RXF 393 81.5 µM | SF-295 > 100 µM | SNB-19 > 100 µM | SNB-75 22.6 µM | UACC-62 78.7 µM | UO-31 > 100 µM

CSC(=O)C[C@@]12O[C@@H]([C@@H](C)C3CCC4[C@@H]5C(O)CC6=CC(=O)C=C[C@]6(C)C5CC[C@@]43C)C[C@](C)(O1)C(C)(C)O2 (stereo partly drawn)
inactive: A549 15.5 µM | CAKI-1 18.6 µM | HOP-62 18.2 µM | HT-29 14.5 µM | Malme-3M 23.2 µM | NCI-H23 > 10 µM | NCI-H522 14.1 µM | OVCAR-3 15.1 µM | RXF 393 11.6 µM | SF-295 14.5 µM | SNB-19 17.5 µM | UACC-62 10.3 µM | UO-31 12.3 µM

CC(=O)O[C@@H]1CC(C)C2CC2C2=C(C(O)OC2O)[C@@H]1C(C)CCC=C(C)C (stereo partly drawn)
inactive: A549 22.7 µM | ACHN 31.7 µM | CAKI-1 26.4 µM | COLO 205 18.2 µM | HOP-62 26.9 µM | HT-29 19 µM | MOLT-4 24.6 µM | Malme-3M 27.8 µM | NCI-H23 22.2 µM | NCI-H522 15.3 µM | RXF 393 17.3 µM | SNB-19 33.7 µM | SNB-75 26.9 µM | UACC-62 26.3 µM | UO-31 22.2 µM
